Data taken from PubChem BioAssay AID2060340 (Molecular Pharmacology Branch, DTP, NCI, 2025).

System: 349418-098-R-PDC spheroids, viability, % test/control
Test: Anticancer human tumor 349418-098-R-PDC patient-derived lung adenocarcinoma cell line growth inhibition [IpAb]
Details: spheroids with HUVEC and MSC; for IC50: curve of first compound; for viability, T/C: stronger effect = lower value; active = viability on the fitted dose curve at most 10% of control; inactive = the rest
Source text: Combinatorial screen of targeted agents with ipatasertib and abemaciclib in multi-cell type tumor spheroids
A high-throughput screen of multi-cell type tumor spheroids was designed to identify active combinations of targeted small molecules and ipatasertib or abemaciclib. Complex spheroids include a stromal component modeled by human endothelial cells (HUVEC) and fibroblasts modeled by human mesenchymal stem cells (MSCs). The concentration ranges selected for each drug and investigational agent were based upon clinically achievable concentrations if the clinical Cmax of the agent was known.
Compounds. The drugs and investigational agents: ipatasertib (NSC767898), abemaciclib(NSC768073), selumetinib (NSC741078), trametinib (758246), adavosertib (NSC754352), everolimus (NSC733504), sapanisertib (NSC764658), vemurafenib (NSC761431), venetoclax (NSC766270), copanlisib (NSC809693), apelisib (NSC765974), palbociblib (NSC758247), vemurafenib (NSC761431), dabrafenib (NSC764134), ravoxertinib (NSC781343), BMS-387032 (NSC767048), sotorasib (NSC818433), talazoparib (NSC767125) and afursertib (NSC778305), were obtained from the National Cancer Institute (NCI) Developmental Therapeutics Program Chemical Repository. The FDA-approved anticancer drug set is available from the NCI Developmental Therapeutics Program. […] The stock solutions were prepared in dimethyl sulfoxide (DMSO, Sigma-Aldrich, St. Louis, MO, cat. D2650) at 800-fold the tested concentration and stored at -70 degrees C prior to their use. All drugs and investigational agents were tested over a range starting from a high concentration at or near the clinical Cmax and decreasing in half-log increments. If the clinical Cmax for an agent had not been determined, the highest concentration tested was 10 microM.
NCI60 Cell Culture. NCI60 cell lines were obtained from the NCI Developmental Therapeutics Program Tumor Repository. For each lot of cells, the Repository performed Applied Biosystems AmpFLSTR Identifiler testing with PCR amplification to confirm consistency with the published Identifier STR profile for each cell line. Cells were kept in continuous culture for no more than 20 passages. The optimal seeding densities for each of the cell lines at each time point assessed were determined prior to performing the concentration response studies. Briefly, the NCI60 human tumor lines were grown as monolayers in RPMI 1640 medium supplemented with 10% FBS and 2 mmol/L L-glutamine.
An additional 9 lines were from the NCI60 cell line panel including MDA-MB-231 breast carcinoma, MDA-MB-468 breast carcinoma, MCF7 breast carcinoma, Hs578T breast carcinoma, MALME-3M melanoma, SK-MEL-2 melanoma, SK-OV-3 ovarian carcinoma, DU-145 prostate carcinoma, PC-3 prostate carcinoma, all cell lines along with major genetic alterations are listed on Table 2. Pooled donor human umbilical vein endothelial cells (HUVEC, Lonza, cat. CC-2519) and human mesenchymal stem cells (hMSC, Lonza, cat. PT-2501) were purchased from Lonza (Walkersville, MD).
PDMR cell lines were grown in complete medium (DC medium): Dulbecco's modified Eagle's medium (DMEM)/F12 supplemented with 5% fetal bovine serum (FBS), 2 mM L-glutamine, 100 U/mL penicillin and 100 µg/ml streptomycin, 0.4 µg/ml hydrocortisone, 10 ng/ml epidermal growth factor (EGF) recombinant human protein, 24 µg/mL adenine, and 0.1 mg/mL primocin. During culture from frozen stock vials, PDMR cells were cultured in the same medium containing 10 µM Y-27632 (see Table 3). The PDCs were cultured in complete DMEM/F12 media without 10 microM Y-27632 dihydrochloride for at least two passages prior to the screen. The pooled donor HUVEC and hMSC were cultured in endothelial cell growth medium 2 (PromoCell, Heidelberg, Germany, cat. C-22011) and mesenchymal stem cell growth medium 2 (PromoCell, cat. C-28009), respectively. For all experiments, HUVEC and hMSC were used at passages </=5.
[…]
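Also: spheroids exposed to compounds for 7 days.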

C=CCn1c(=O)c2cnc(Nc3ccc(N4CCN(C)CC4)cc3)nc2n1-c1cccc(C(C)(C)O)n1 + CC(C)NCC(C(=O)N1CCN(c2ncnc3c2C(C)CC3O)CC1)c1ccc(Cl)cc1
154 nM: IC50 (second compound 0.1 µM)
active: viability, T/C (second compound 0.1 µM, first compound 1 µM) 4.54% | viability, T/C (second compound 0.1 µM, first compound 3.16 µM) 4.88% | viability, T/C (second compound 0.1 µM, first compound 10 µM) 5.17% | viability, T/C (second compound 0.316 µM, first compound 0.316 µM) 7.25% | viability, T/C (second compound 0.316 µM, first compound 1 µM) 4.35% | viability, T/C (second compound 0.316 µM, first compound 3.16 µM) 4.32% | viability, T/C (second compound 0.316 µM, first compound 10 µM) 4.08% | viability, T/C (second compound 1 µM, first compound 0.316 µM) 5.45% | viability, T/C (second compound 1 µM, first compound 1 µM) 3.39% | viability, T/C (second compound 1 µM, first compound 3.16 µM) 3.96% | viability, T/C (second compound 1 µM, first compound 10 µM) 3.54% | viability, T/C (second compound 3.16 µM, first compound 0.1 µM) 12.3% | viability, T/C (second compound 3.16 µM, first compound 0.316 µM) 4.49% | viability, T/C (second compound 3.16 µM, first compound 1 µM) 2.96% | viability, T/C (second compound 3.16 µM, first compound 3.16 µM) 3.95% | viability, T/C (second compound 3.16 µM, first compound 10 µM) 3.35% | viability, T/C (second compound 10 µM, first compound 0.0316 µM) 9.2% | viability, T/C (second compound 10 µM, first compound 0.1 µM) 7.89% | viability, T/C (second compound 10 µM, first compound 0.316 µM) 4.37% | viability, T/C (second compound 10 µM, first compound 1 µM) 2.99% | viability, T/C (second compound 10 µM, first compound 3.16 µM) 3.49% | viability, T/C (second compound 10 µM, first compound 10 µM) 3.4%
84.5 nM: IC50 (second compound 0.316 µM)
< 31.6 nM: IC50 (second compound 1 µM) | IC50 (second compound 3.16 µM) | IC50 (second compound 10 µM)
inactive: viability, T/C (second compound 0.1 µM, first compound 0.0316 µM) 96.2% | viability, T/C (second compound 0.1 µM, first compound 0.1 µM) 73% | viability, T/C (second compound 0.1 µM, first compound 0.316 µM) 11.5% | viability, T/C (second compound 0.316 µM, first compound 0.0316 µM) 82% | viability, T/C (second compound 0.316 µM, first compound 0.1 µM) 44.5% | viability, T/C (second compound 1 µM, first compound 0.0316 µM) 29.7% | viability, T/C (second compound 1 µM, first compound 0.1 µM) 22.2% | viability, T/C (second compound 3.16 µM, first compound 0.0316 µM) 15.3%

Cn1cnc2c(F)c(Nc3ccc(Br)cc3Cl)c(C(=O)NOCCO)cc21 + CC(C)NCC(C(=O)N1CCN(c2ncnc3c2C(C)CC3O)CC1)c1ccc(Cl)cc1
active: viability, T/C (second compound 0.1 µM, first compound 3 µM) 8.1% | viability, T/C (second compound 0.316 µM, first compound 3 µM) 7.06% | viability, T/C (second compound 1 µM, first compound 0.0949 µM) 10.3% | viability, T/C (second compound 1 µM, first compound 0.3 µM) 7.91% | viability, T/C (second compound 1 µM, first compound 0.949 µM) 6.83% | viability, T/C (second compound 1 µM, first compound 3 µM) 5.21% | viability, T/C (second compound 3.16 µM, first compound 0.00949 µM) 7.25% | viability, T/C (second compound 3.16 µM, first compound 0.03 µM) 6.51% | viability, T/C (second compound 3.16 µM, first compound 0.0949 µM) 5.52% | viability, T/C (second compound 3.16 µM, first compound 0.3 µM) 5.93% | viability, T/C (second compound 3.16 µM, first compound 0.949 µM) 4.94% | viability, T/C (second compound 3.16 µM, first compound 3 µM) 3.63% | viability, T/C (second compound 10 µM, first compound 0.00949 µM) 5.59% | viability, T/C (second compound 10 µM, first compound 0.03 µM) 5.09% | viability, T/C (second compound 10 µM, first compound 0.0949 µM) 4.7% | viability, T/C (second compound 10 µM, first compound 0.3 µM) 3.85% | viability, T/C (second compound 10 µM, first compound 0.949 µM) 3.8% | viability, T/C (second compound 10 µM, first compound 3 µM) 3.14%
< 9.49 nM: IC50 (second compound 0.1 µM) | IC50 (second compound 0.316 µM) | IC50 (second compound 1 µM) | IC50 (second compound 3.16 µM) | IC50 (second compound 10 µM)
inactive: viability, T/C (second compound 0.1 µM, first compound 0.00949 µM) 46.7% | viability, T/C (second compound 0.1 µM, first compound 0.03 µM) 38.4% | viability, T/C (second compound 0.1 µM, first compound 0.0949 µM) 41.8% | viability, T/C (second compound 0.1 µM, first compound 0.3 µM) 33.6% | viability, T/C (second compound 0.1 µM, first compound 0.949 µM) 18.8% | viability, T/C (second compound 0.316 µM, first compound 0.00949 µM) 25.7% | viability, T/C (second compound 0.316 µM, first compound 0.03 µM) 24.6% | viability, T/C (second compound 0.316 µM, first compound 0.0949 µM) 21.4% | viability, T/C (second compound 0.316 µM, first compound 0.3 µM) 18.8% | viability, T/C (second compound 0.316 µM, first compound 0.949 µM) 10.2% | viability, T/C (second compound 1 µM, first compound 0.00949 µM) 12.5% | viability, T/C (second compound 1 µM, first compound 0.03 µM) 10.5%
